# Measurements reported in ChEMBL document CHEMBL5096228, “Targeting Vancomycin-Resistant Enterococci (VRE) Infections and Van Operon-Mediated Drug Resistance Using Dimeric Cholic Acid-Peptide Conjugates” (J Med Chem, 2022).
# The source made the active and inactive calls. The calls are words filed in the database; no cut-off is given here.
# How the values were obtained:
# Cell membrane [1] = test: Disruption of membrane in Enterococcus faecium ATCC 51559 at 4 ug/ml by SYTO9/PI staining based fluorometric analysis; settings: dose 4.0 µg/ml, time 1-6 hrs, TDE = time-dependent effect
# Enterococcus faecium [2] = test: Inhibition of vancomycin-resistance in Enterococcus faecium ATCC 51559 assessed as reduction in vanA expression at 2 ug/ml incubated for 1 hr measured after 7 days in presence of vancomycin by qRT-PCR analysis; format: functional; settings: dose 2.0 µg/ml
# [3] = Hemolytic activity in human RBC at 50 ug/ml; format: toxicity, cell-based, Erythrocyte; settings: red blood cells (erythrocytes), at 50 µg/mL, read-out: Activity
# Enterococcus faecium [4] = test: Antimicrobial activity against vancomycin-susceptible Enterococcus faecium induced wound in BALB/c mouse assessed as log reduction in colony forming unit at 40 mg/kg administered topically 3 times daily for 3 days; format: functional, organism-based; settings: route top, time 3.0 day
# Enterococcus faecium [5] = test: Antibiofilm activity against Vancomycin-resistant Enterococcus faecium ATCC 51559 assessed as log reduction in colony forming unit at 16 ug/ml incubated for 12 hrs by SYTO9 and PI staining based fluorescence assay; format: functional; settings: dose 16 µg/ml
# Enterococcus faecium [6] = test: Inhibition of vancomycin-resistance in Enterococcus faecium ATCC 51559 assessed as reduction in vanR expression at 2 ug/ml measured after 1 hr in presence of vancomycin by qRT-PCR analysis; format: functional; settings: dose 2.0 µg/ml
# Staphylococcus aureus [7] = test: Antimicrobial activity against methicillin-resistant Staphylococcus aureus ATCC 33591 assessed as growth inhibition after 14 to 16 hrs by CLSI based broth dilution method; format: functional; settings: time 14-16 hrs
# Enterococcus faecium [8] = test: Antibiofilm activity against Vancomycin-resistant Enterococcus faecium ATCC 51559 assessed as log reduction in colony forming unit at 16 ug/ml by SYTO9 and PI staining based fluorescence assay; format: functional, organism-based; settings: dose 16.0 µg/ml, time 1-6 hrs, TDE = time-dependent effect
# Enterococcus faecium [9] = test: Inhibition of vancomycin-resistance in Enterococcus faecium ATCC 51559 assessed as reduction in vanH expression at 2 ug/ml incubated for 1 hr measured after 7 days in presence of vancomycin by qRT-PCR analysis; format: functional; settings: dose 2.0 µg/ml
# Enterococcus faecium [10] = test: Antibiofilm activity against Vancomycin-resistant Enterococcus faecium ATCC 51559 assessed as log reduction in colony forming unit at 32 ug/ml incubated for 12 hrs by SYTO9 and PI staining based fluorescence assay; format: functional; settings: dose 32 µg/ml
# Enterococcus faecium [11] = test: Induction of reactive oxygen species generation in Enterococcus faecium ATCC 51559 incubated for 1 hr by DCFH-DA based fluorescent microscopy; format: functional, organism-based
# Enterococcus faecium [12] = test: Induction of membrane-permeabilization in Enterococcus faecium ATCC 51559 at 8 ug/ml measured after 1 hr by PI staining based flow cytometry analysis; format: functional; settings: dose 8.0 µg/ml
# Cell membrane [13] = test: Disruption of membrane in Enterococcus faecium ATCC 51559 at 4 to 16 ug/ml measured after 1 hr by SYTO9/PI staining based fluorometric analysis; format: subcellular; settings: dose 4-16 µg/ml
# Cell membrane [14] = test: Induction of membrane disruption in Vancomycin-resistant Enterococcus faecium ATCC 51559 at 4 to 16 ug/ml measured after 15 mins by DiSC2(5) dye based multimode plate reader assay; format: functional, subcellular; settings: dose 4-16 µg/ml
# Mus musculus = test: Antimicrobial activity against Vancomycin-resistant Enterococcus faecium ATCC 51559 induced wound in BALB/c mouse assessed as log reduction in colony forming unit at 40 mg/kg administered topically 3 times daily for 3 days; format: functional; settings: route top, time 3 day
# Enterococcus faecium [15] = test: Inhibition of vancomycin-resistance in Enterococcus faecium ATCC 51559 assessed as increase in vanR expression at 2 ug/ml measured after 1 hr by qRT-PCR analysis; format: functional; settings: dose 2.0 µg/ml
# Enterococcus faecium [16] = test: Inhibition of vancomycin-resistance in Enterococcus faecium ATCC 51559 assessed as increase in vanY expression at 2 ug/ml measured after 1 hr by qRT-PCR analysis; format: functional; settings: dose 2.0 µg/ml
# Enterococcus faecium [17] = test: Inhibition of vancomycin-resistance in Enterococcus faecium ATCC 51559 assessed as reduction in vanS expression at 2 ug/ml measured after 1 hr in presence of vancomycin by qRT-PCR analysis; format: functional; settings: dose 2.0 µg/ml
# Enterococcus faecium [18] = test: Membrane permeabilization in Enterococcus faecium ATCC 51559 at 16 ug/ml measured after 1 hr by PI staining based flow cytometry analysis; format: functional; settings: dose 16 µg/ml
# Enterococcus faecium [19] = test: Inhibition of vancomycin-resistance in Enterococcus faecium ATCC 51559 assessed as increase in vanZ expression at 2 ug/ml measured after 1 hr by qRT-PCR analysis; format: functional; settings: dose 2.0 µg/ml
# [20] = Cytotoxicity against mouse LLC cells assessed as reduction in cell viability; format: toxicity, cell-based; settings: LLC (3LL) cells
# Enterococcus faecium [21] = test: Inhibition of vancomycin-resistance in Enterococcus faecium ATCC 51559 assessed as reduction in vanX expression at 2 ug/ml incubated for 1 hr measured after 7 days in presence of vancomycin by qRT-PCR analysis; format: functional; settings: dose 2.0 µg/ml
# Enterococcus faecium [22] = test: Inhibition of vancomycin-resistance in Enterococcus faecium ATCC 51559 assessed as increase in vanX expression at 2 ug/ml measured after 1 hr in presence of vancomycin by qRT-PCR analysis; format: functional; settings: dose 2.0 µg/ml
# Enterococcus faecium [23] = test: Inhibition of vancomycin-resistance in Enterococcus faecium ATCC 51559 assessed as reduction in vanY expression at 2 ug/ml incubated for 1 hr measured after 7 days in presence of vancomycin by qRT-PCR analysis; format: functional; settings: dose 2.0 µg/ml
# Staphylococcus aureus [24] = test: Antimicrobial activity against Staphylococcus aureus ATCC 25923 assessed as growth inhibition after 14 to 16 hrs by CLSI based broth dilution method; format: functional; settings: time 14-16 hrs
# Enterococcus faecium [25] = test: Resistance development in vancomycin-resistance Enterococcus faecium ATCC 51559 assessed as decrease CFU measured in presence of vancomycin; format: functional, organism-based
# Enterococcus faecium [26] = test: Bactericidal activity against Vancomycin-resistant Enterococcus faecium ATCC 51559 assessed as inhibition of bacterial growth at 4 to 16 ug/ml measured upto 24 hrs by time-kill assay; format: functional, organism-based; settings: dose 4-16 µg/ml
# Enterococcus faecium [27] = test: Inhibition of vancomycin-resistance in Enterococcus faecium ATCC 51559 assessed as increase in vanA expression at 2 ug/ml measured after 1 hr by qRT-PCR analysis; format: functional; settings: dose 2.0 µg/ml
# Enterococcus faecium [28] = test: Development of drug resistance in vancomycin-resistant Enterococcus faecium ATCC 51559 assessed as increase in TN1546 expression measured after 7 days in presence of vancomycin; format: functional, organism-based; settings: time 7.0 day
# Enterococcus faecium [29] = test: Inhibition of vancomycin-resistance in Enterococcus faecium ATCC 51559 assessed as increase in vanH expression at 2 ug/ml measured after 1 hr by qRT-PCR analysis; format: functional; settings: dose 2.0 µg/ml
# Enterococcus faecium [30] = test: Antimicrobial activity against Vancomycin-resistant Enterococcus faecium ATCC 51559 assessed as growth inhibition after 14 to 16 hrs by CLSI based broth dilution method; format: functional; settings: time 14-16 hrs
# [31] = Induction of membrane-permeabilization in Enterococcus faecium ATCC 51559 at 4 ug/ml measured after 1 hr by PI staining based flow cytometry analysis; settings: at 4 µg/mL
# Enterococcus faecium [32] = test: Antibiofilm activity against Vancomycin-resistant Enterococcus faecium ATCC 51559 assessed as log reduction in colony forming unit at 16 ug/ml incubated for 3 hrs by SYTO9 and PI staining based fluorescence assay; format: functional; settings: dose 16 µg/ml
# Enterococcus faecium [33] = test: Antimicrobial activity against Enterococcus faecium assessed as growth inhibition after 14 to 16 hrs by CLSI based broth dilution method; format: functional; settings: time 14-16 hrs
# Enterococcus faecium [34] = test: Inhibition of vancomycin-resistance in Enterococcus faecium ATCC 51559 assessed as reduction in vanZ expression at 2 ug/ml incubated for 1 hr measured after 7 days in presence of vancomycin by qRT-PCR analysis; format: functional; settings: dose 2.0 µg/ml
# Enterococcus faecium [35] = test: Antibiofilm activity against Vancomycin-resistant Enterococcus faecium ATCC 51559 assessed as log reduction in colony forming unit incubated for 12 hrs by SYTO9 and PI staining based fluorescence assay; format: functional, organism-based; settings: dose 4-16 µg/ml, DDE = dose-dependent effect
# Enterococcus faecium [36] = test: Inhibition of vancomycin-resistance in Enterococcus faecium ATCC 51559 assessed as increase in vanS expression at 2 ug/ml measured after 1 hr by qRT-PCR analysis; format: functional; settings: dose 2.0 µg/ml
# Enterococcus faecium [37] = test: Resistance development in vancomycin-susceptible Enterococcus faecium assessed as vancomycin MIC99 at 2 ug/ml measured after 110 vancomycin passages; format: functional, organism-based; settings: dose 2.0 µg/ml
# Enterococcus faecium [38] = test: Development of drug resistance in vancomycin-resistant Enterococcus faecium ATCC 51559 assessed as increase in TN1546 expression measured after 7 days; format: functional; settings: time 7 day
smiles,measurement,setting,value
CC(C)C(N)C(=O)NCC(=O)O[C@@H]1CC[C@@]2(C)[C@@H](C1)C[C@@H](OC(=O)CNC(=O)C(N)C(C)C)[C@@H]1[C@@H]2C[C@H](OC(=O)CNC(=O)C(N)C(C)C)[C@]2(C)[C@@H]([C@H](C)CCC(=O)NCc3cn(CCCn4cc(CNC(=O)CC[C@@H](C)[C@H]5CC[C@H]6[C@@H]7[C@H](OC(=O)CNC(=O)C(N)C(C)C)C[C@@H]8C[C@H](OC(=O)CNC(=O)C(N)C(C)C)CC[C@]8(C)[C@H]7C[C@H](OC(=O)CNC(=O)C(N)C(C)C)[C@]56C)nn4)nn3)CC[C@@H]12.Cl.Cl.Cl.Cl.Cl.Cl (stereo not given in full),Activity,Cell membrane [1],Tde
same,Activity,Enterococcus faecium [2],Active
same,hemolysis at 50 ug/ml,[3],5%
same,Activity,Enterococcus faecium [4],Active
same,log(activity),Enterococcus faecium [5],3
same,Activity,Enterococcus faecium [6],Active
same,MIC99,Staphylococcus aureus [7],16 µg/mL
same,Activity,Enterococcus faecium [8],Tde
same,Activity,Enterococcus faecium [9],Active
same,log(activity),Enterococcus faecium [10],5
same,Activity,Enterococcus faecium [11],Active
same,Activity,Enterococcus faecium [12],90%
same,Activity,Cell membrane [13],Active
same,Activity,Cell membrane [14],Active
same,log(activity),Mus musculus,1
same,Activity,Enterococcus faecium [15],Active
same,Activity,Enterococcus faecium [16],Active
same,Activity,Enterococcus faecium [17],Active
same,Activity,Enterococcus faecium [18],90%
same,Activity,Enterococcus faecium [19],Active
same,IC50,[20],414 µg/mL
same,Activity,Enterococcus faecium [21],Active
same,Activity,Enterococcus faecium [22],Active
same,Activity,Enterococcus faecium [23],Active
same,MIC99,Staphylococcus aureus [24],64 µg/mL
same,Activity,Enterococcus faecium [25],Active
same,Activity,Enterococcus faecium [26],Active
same,Activity,Enterococcus faecium [27],Active
same,Activity,Enterococcus faecium [28],Active
same,Activity,Enterococcus faecium [29],Active
same,MIC99,Enterococcus faecium [30],4 µg/mL
same,Activity,[31],90%
same,log(activity),Enterococcus faecium [32],3
same,MIC99,Enterococcus faecium [33],16 µg/mL
same,Activity,Enterococcus faecium [34],Active
same,Activity,Enterococcus faecium [35],Dde
same,Activity,Enterococcus faecium [36],Active
CN[C@H](CC(C)C)C(=O)N[C@H]1C(=O)N[C@@H](CC(N)=O)C(=O)N[C@H]2C(=O)N[C@H]3C(=O)N[C@H](C(=O)N[C@H](C(=O)O)c4cc(O)cc(O)c4-c4cc3ccc4O)[C@H](O)c3ccc(c(Cl)c3)Oc3cc2cc(c3O[C@@H]2O[C@H](CO)[C@@H](O)[C@H](O)[C@H]2O[C@H]2C[C@](C)(N)[C@H](O)[C@H](C)O2)Oc2ccc(cc2Cl)[C@H]1O [VANCOMYCIN],MIC99,Staphylococcus aureus [7],2 µg/mL
same,Activity,Enterococcus faecium [37],Active
same,log(activity),Mus musculus,2
same,IC50,[20],> 1000 µM
same,MIC99,Staphylococcus aureus [24],8 µg/mL
same,fold change (FC),Enterococcus faecium [38],3
same,MIC99,Enterococcus faecium [30],> 128 µg/mL
same,MIC99,Enterococcus faecium [33],4 µg/mL
